Patent US9029337B2, “Modulation of factor 7 expression” (Isis Pharmaceuticals, Inc., priority 2007, dated 2015)
Strand notation (5' to 3'): a small letter for the sugar, then the base; units joined by * are phosphorothioate-linked, units joined directly phosphodiester-linked; [ ] holds rarer units or linkages, { } end groups; capitals alone tell only the bases. e = 2'-O-(2-methoxyethyl) (MOE); [5mC] = 5-methylcytosine; d = 2'-deoxy (DNA)

Key:
human Factor 7 mRNA [1] = test: Dose-dependent antisense inhibition of human Factor 7 in HepB3 cells, lipofectin; assay type: cell-based; conditions: approximately 16 hours
Experimental: Cells were plated at a density of 4,000 cells per well and treated with lipofectin reagent with 3.125 nM, 6.25 nM, 12.5 nM, 25 nM, 50 nM, and 100 nM concentrations of antisense oligonucleotide, as indicated in Table 3. After a treatment period of approximately 16 hours, RNA was isolated from the cells and Factor 7 mRNA levels were measured by real-time RT-PCR, as described herein. Human Factor 7 primer probe set RTS 2927 (forward sequence: […], incorporated herein as SEQ ID NO: 164; reverse sequence: […], incorporated herein as SEQ ID NO: 165; probe sequence: TGGGTGGTCTCCGCGGCCX, incorporated herein as SEQ ID NO: 166) was used to measure mRNA levels. Factor 7 mRNA levels were adjusted according to total RNA content as measured by RIBOGREEN®. Results are presented as percent inhibition of Factor 7, relative to untreated control cells.
Cells were plated at a density of 4,000 cells per well and transfected using lipofectin reagent with 6.25 nM, 12.5 nM, 25.0 nM, 50.0 nM, and 100.0 nM concentrations of antisense oligonucleotide, as indicated in Table 7. After a treatment period of approximately 16 hours, RNA was isolated from the cells and Factor 7 mRNA levels were measured by real-time RT-PCR, as described herein. Human Factor 7 primer probe set RTS 2927 was used to measure mRNA levels. Factor 7 mRNA levels were adjusted according to total RNA content as measured by RIBOGREEN®. Results are presented as percent inhibition of Factor 7, relative to untreated control cells.
Cells were plated at a density of 4,000 cells per well and transfected using lipofectin reagent with 3.125 nM, 6.25 nM, 12.5 nM, 25 nM, 50 nM, and 100 nM concentrations of antisense oligonucleotide, as specified in Table 14. After a treatment period of approximately 16 hours, RNA was isolated from the cells and Factor 7 mRNA levels were measured by quantitative real-time PCR. Human Factor 7 primer probe set RTS 2927 was used to measure mRNA levels. Factor 7 mRNA levels were adjusted according to total RNA content, as measured by RIBOGREEN®. Results are presented as percent inhibition of Factor 7, relative to untreated control cells.

human Factor 7 mRNA [2] = test: Antisense inhibition of human Factor 7 mRNA in HepB3 cells, 50 nM antisense oligonucleotide, lipofectin; assay type: cell-based; conditions: for % Inhibition: lipofectin, approximately 24 hours
Summary of the method: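 After transfection of wells containing 4,000 cells, treatment ran for approximately 24 h. RIBOGREEN®-measured total RNA served for normalisation, and inhibition was calculated as a percentage of untreated control.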

[3] = Table 1, 50 nM, relative to untreated control cells
[4] = 50 nM antisense oligonucleotide, Factor 7 mRNA by real-time RT-PCR (RTS 2927), relative to untreated control

Substance	percent inhibition of Factor 7 (human Factor 7 mRNA [1]; Table 3, 3.125 nM)	percent inhibition of Factor 7 (human Factor 7 mRNA [1]; Table 3, 6.25 nM)	percent inhibition of Factor 7 (human Factor 7 mRNA [1]; Table 3, 12.5 nM)	percent inhibition of Factor 7 (human Factor 7 mRNA [1]; Table 3, 25.0 nM)	percent inhibition of Factor 7 (human Factor 7 mRNA [1]; Table 3, 50.0 nM)	percent inhibition of Factor 7 (human Factor 7 mRNA [1]; Table 3, 100.0 nM)	% Inhibition (human Factor 7 mRNA [2]; [3])	% Inhibition (human Factor 7 mRNA [2]; [4])	% Inhibition (human Factor 7 mRNA levels) (human Factor 7 mRNA [2]; oligonucleotides targeted to nucleobases 14707 to 14732 of SEQ ID NO: 1 (Table 11))	percent inhibition of Factor 7 (human Factor 7 mRNA [1]; Table 7, 6.25 nM)	percent inhibition of Factor 7 (human Factor 7 mRNA [1]; Table 7, 12.5 nM)	percent inhibition of Factor 7 (human Factor 7 mRNA [1]; Table 7, 25.0 nM)	percent inhibition of Factor 7 (human Factor 7 mRNA [1]; Table 7, 50.0 nM)	percent inhibition of Factor 7 (human Factor 7 mRNA [1]; Table 7, 100.0 nM)	% Inhibition (human Factor 7 mRNA levels) (human Factor 7 mRNA [2]; oligonucleotides targeted to nucleobases 15098 to 15122 of SEQ ID NO: 1 (Table 12))
407594 (antisense e[5mC]*e[5mC]*eT*eG*e[5mC]*dA*dG*d[5mC]*d[5mC]*dA*dG*dG*d[5mC]*dA*dG*e[5mC]*e[5mC]*e[5mC]*eT*eG) [compound 407594]	10%	34%	63%	77%	84%	80%	87%	–	–	–	–	–	–	–	–
407606 (antisense e[5mC]*eT*eG*eG*eT*d[5mC]*d[5mC]*dT*dT*dG*d[5mC]*dA*dG*dG*dA*eG*e[5mC]*e[5mC]*e[5mC]*e[5mC]) [compound 407606]	20%	0%	49%	55%	83%	84%	89%	57%	–	–	–	–	–	–	–
407641 (antisense e[5mC]*e[5mC]*eT*eG*eA*dG*dG*d[5mC]*d[5mC]*dA*dG*d[5mC]*dA*dG*dA*eT*e[5mC]*eA*e[5mC]*eG) [compound 407641]	53%	53%	71%	84%	88%	89%	94%	73%	68%	–	–	–	–	–	–
407643 (antisense e[5mC]*eA*e[5mC]*eA*e[5mC]*dA*dT*dG*dG*dA*dG*dT*d[5mC]*dA*dG*e[5mC]*eA*eT*e[5mC]*eG) [compound 407643]	16%	59%	68%	76%	92%	95%	84%	80%	–	36%	49%	70%	83%	93%	69%
407900 (antisense e[5mC]*e[5mC]*e[5mC]*e[5mC]*eA*d[5mC]*dA*dA*dT*dT*d[5mC]*dG*dG*d[5mC]*d[5mC]*eT*eT*eG*eG*eG) [compound 407900]	52%	58%	80%	87%	94%	91%	91%	78%	–	18%	36%	61%	82%	91%	–
407910 (antisense eA*eG*eT*e[5mC]*e[5mC]*dT*dT*dG*d[5mC]*dT*dG*d[5mC]*d[5mC]*dA*dT*e[5mC]*e[5mC]*eG*eA*eG) [compound 407910]	31%	44%	69%	68%	82%	89%	86%	72%	–	–	–	–	–	–	–
407936 (antisense eG*eG*e[5mC]*eA*eT*dT*d[5mC]*dG*d[5mC]*d[5mC]*dA*d[5mC]*d[5mC]*dA*dT*eG*e[5mC]*eA*eT*eG) [compound 407936]	45%	77%	79%	86%	91%	90%	91%	–	–	–	–	–	–	–	–
416438 (antisense e[5mC]*eA*eG*eG*eA*dG*d[5mC]*d[5mC]*d[5mC]*d[5mC]*d[5mC]*dA*dT*dT*d[5mC]*eT*eG*eG*e[5mC]*eA) [compound 416438]	–	–	–	–	–	–	–	63%	–	11%	33%	56%	75%	82%	–
